The text below walks through data of patent US20140314882A1, “Synergistic Combination Therapy” (President and Fellows of Harvard College, priority 2009, published 2014).

The assay deals with S. cerevisiae cells (strain BY4741). Put plainly: concentration matrix drug synergy test on S. cerevisiae growth (OD595 growth curves).

`C=CC[C@@H]1/C=C(\C)C[C@H](C)C[C@H](OC)[C@H]2O[C@@](O)(C(=O)C(=O)N3CCCC[C@H]3C(=O)O[C@H](/C(C)=C/[C@@H]3CC[C@@H](O)[C@H](OC)C3)[C@H](C)[C@@H](O)CC1=O)[C@H](C)C[C@@H]2OC` [tacrolimus]: the “effect on yeast growth” value is listed as “only mildly reduced yeast growth”.

With `C/C1=C/C(=O)O[C@@H]2C[C@@H](CC[C@H](C)/C=C\CC1)O[C@@](O)([C@@H]1CSC(=O)N1)C2` [latrunculin B], the “effect on yeast growth” value was “only mildly reduced yeast growth”.
